Values of other authors in patent US20060080073A1, “Three-dimensional structural activity correlation method” (priority 2002, published 2006).

target: T1, human corticosteroid-binding globulin (Homo sapiens, UniProt P08185); settings: steroid derivatives disclosed by Cramer et al. (CoMFA benchmark); values given as negative logarithmic numbers, no unit
T1 sequence (P08185 23-405): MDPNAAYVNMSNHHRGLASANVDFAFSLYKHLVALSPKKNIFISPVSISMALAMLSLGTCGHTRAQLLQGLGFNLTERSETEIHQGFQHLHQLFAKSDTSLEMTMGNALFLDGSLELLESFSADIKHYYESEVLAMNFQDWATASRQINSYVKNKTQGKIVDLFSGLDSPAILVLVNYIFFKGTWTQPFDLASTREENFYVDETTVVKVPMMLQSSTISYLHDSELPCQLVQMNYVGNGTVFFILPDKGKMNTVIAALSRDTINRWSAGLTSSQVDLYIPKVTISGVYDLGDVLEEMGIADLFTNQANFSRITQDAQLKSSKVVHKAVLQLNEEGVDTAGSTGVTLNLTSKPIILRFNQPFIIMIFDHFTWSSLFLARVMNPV

SMILES	Binding affinity to human corticosteroid-binding globulins (CBG)
C[C@]12CCC(=O)C=C1CC[C@@H]1[C@@H]2[C@@H](O)C[C@]2(C=O)[C@@H](C(=O)CO)CC[C@@H]12 [aldosterone]	−6.279
C[C@]12CCC(O)CC1CC[C@@H]1[C@@H]2CC[C@]2(C)C(O)CC[C@@H]12 (stereo partly drawn) [androstandiol]	−5.000
C[C@]12CCC(=O)C=C1CC[C@@H]1[C@@H]2CC[C@]2(C)C(=O)CC[C@@H]12 [androstenedione]	−5.763
C[C@]12CC[C@@H](O)C[C@@H]1CC[C@@H]1[C@@H]2CC[C@]2(C)C(=O)CC[C@@H]12 [androsterone]	−5.613
C[C@]12C[C@H](O)[C@H]3[C@@H](CCC4=CC(=O)CC[C@@]43C)[C@@H]1CC[C@@H]2C(=O)CO [corticosterone]	−7.881
C[C@]12CCC(=O)C=C1CC[C@@H]1[C@@H]2[C@@H](O)C[C@@]2(C)[C@H]1CC[C@]2(O)C(=O)CO [cortisol]	−7.881
C[C@]12CCC(=O)C=C1CC[C@@H]1[C@@H]2C(=O)C[C@@]2(C)[C@H]1CC[C@]2(O)C(=O)CO [cortisone]	−6.892
C[C@]12CC[C@H](O)CC1=CC[C@@H]1[C@@H]2CC[C@]2(C)C(=O)CC[C@@H]12 [dehydroepiandrosterone]	−5.000
C[C@]12CC[C@H]3[C@@H](CCC4=CC(=O)CC[C@@]43C)[C@@H]1CC[C@@H]2C(=O)CO [deoxycorticosterone]	−7.653
C[C@]12CCC(=O)C=C1CC[C@@H]1[C@@H]2CC[C@@]2(C)[C@H]1CC[C@]2(O)C(=O)CO [deoxycortisole]	−7.881
C[C@]12CCC(=O)C[C@@H]1CC[C@@H]1[C@@H]2CC[C@]2(C)[C@@H](O)CC[C@@H]12 [dihydrotestosterone]	−5.919
C[C@]12CC[C@@H]3c4ccc(O)cc4CC[C@H]3[C@@H]1C[C@@H](O)[C@@H]2O [estriol]	−5.000
C[C@]12CC[C@@H](O)C[C@H]1CC[C@@H]1[C@@H]2CC[C@]2(C)C(=O)CC[C@@H]12 [etiocholanolone]	−5.255
CC(=O)[C@@]1(O)CC[C@H]2[C@@H]3CC[C@@H]4C[C@H](O)CC[C@]4(C)[C@H]3CC[C@@]21C [hydroxy pregnenolone]	−5.000
CC(=O)[C@@]1(O)CC[C@H]2[C@@H]3CCC4=CC(=O)CC[C@]4(C)[C@H]3CC[C@@]21C [hydroxy progesterone]	−7.740
CC(=O)[C@H]1CC[C@H]2[C@@H]3CC=C4C[C@@H](O)CC[C@]4(C)[C@H]3CC[C@]12C [pregnenolone]	−5.255
CC(=O)[C@H]1CC[C@H]2[C@@H]3CCC4=CC(=O)CC[C@]4(C)[C@H]3CC[C@]12C [progesterone]	−7.380
C[C@]12CC[C@H]3[C@@H](CCC4=CC(=O)CC[C@@]43C)[C@@H]1CC[C@@H]2O [teststerone]	−6.724
